Reference: PMC9330389, “Bambus[4,6]urils as Dual Scaffolds for Multivalent Iminosugar Presentation and Ion Transport: Access to Unprecedented Glycosidase-Directed Anion Caging Agents” (Molecules, 2022)
Read-outs that look alike come from different tables or passages of the source.

Columns and labels:
Jack Bean α-mannosidase [1] = target: T1, Jack Bean α-mannosidase (Canavalia ensiformis, UniProt C0HJB3); assay: Inhibition assays on Jack-Bean α-mannosidase (p-nitrophenyl-α-D-mannopyranoside hydrolysis, Dixon and Lineweaver–Burk); format: biochemical
T1 construct: purchased Sigma Aldrich, St. Louis, MO, USA
T1 sequence (C0HJB3 1-981): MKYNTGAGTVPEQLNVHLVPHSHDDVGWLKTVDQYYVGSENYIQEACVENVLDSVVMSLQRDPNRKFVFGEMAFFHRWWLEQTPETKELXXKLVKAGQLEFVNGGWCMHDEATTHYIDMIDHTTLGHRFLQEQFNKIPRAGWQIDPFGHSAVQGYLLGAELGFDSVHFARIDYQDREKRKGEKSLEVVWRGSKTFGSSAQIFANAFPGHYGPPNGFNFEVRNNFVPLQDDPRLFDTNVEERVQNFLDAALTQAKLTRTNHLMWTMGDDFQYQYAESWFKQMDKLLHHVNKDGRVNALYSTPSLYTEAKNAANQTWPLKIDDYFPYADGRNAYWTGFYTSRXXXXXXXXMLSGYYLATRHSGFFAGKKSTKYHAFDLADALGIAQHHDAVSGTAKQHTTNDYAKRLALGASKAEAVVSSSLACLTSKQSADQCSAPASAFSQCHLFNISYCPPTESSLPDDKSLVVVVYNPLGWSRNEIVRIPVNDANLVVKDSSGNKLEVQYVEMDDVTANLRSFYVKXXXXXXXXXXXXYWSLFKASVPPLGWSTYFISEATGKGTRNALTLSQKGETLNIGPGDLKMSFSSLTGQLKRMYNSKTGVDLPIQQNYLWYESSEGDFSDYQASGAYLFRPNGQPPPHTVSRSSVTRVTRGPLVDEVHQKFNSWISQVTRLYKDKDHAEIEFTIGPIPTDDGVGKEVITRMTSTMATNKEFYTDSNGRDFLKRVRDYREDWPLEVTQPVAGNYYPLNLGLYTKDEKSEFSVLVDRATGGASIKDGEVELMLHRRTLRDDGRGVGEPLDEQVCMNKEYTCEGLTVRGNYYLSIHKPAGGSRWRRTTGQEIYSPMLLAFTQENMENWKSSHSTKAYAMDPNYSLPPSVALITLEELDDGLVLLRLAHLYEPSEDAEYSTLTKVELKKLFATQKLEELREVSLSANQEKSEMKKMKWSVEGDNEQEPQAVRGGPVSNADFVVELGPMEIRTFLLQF
Protocol: p-nitrophenyl-α-D-mannopyranoside and α-mannosidase (EC 3.2.1.24, from Jack Bean) were purchased from Sigma Aldrich, St. Louis, MO, USA. Inhibition constants were determined spectrophotometrically by measuring the residual hydrolytic activities of the α-mannosidase against p-nitrophenyl-α-D-mannopyranoside in the presence and absence of an inhibitor. Each well was filled with a total volume of 100 µL, containing 0.2 M acetate buffer pH 5, inhibitor, substrate and enzyme. All kinetics were performed between 25 °C and 27 °C and started by enzyme addition. After 30–50 min of incubation, the reaction was quenched by addition of 100 µL of 1M Na2CO3. The absorbance of the resulting solution was determined at 405 nm. Ki values were determined in triplicate, using the Dixon and Lineweaver–Burk graphical methods within Microsoft Excel. Stock solutions of inhibitors were prepared with DMSO/buffer for final well DMSO content under 5%. The stability of the enzyme in the presence of the same concentrations of DMSO was controlled and enzyme activity was unaffected.

[2] = Isothermal titration calorimetry of iodide binding to bambusuril; details: in water, ITC
Protocol: ITC measurements were performed with a VP-ITC microcalorimeter (Microcal, GEHealthcare). Experiments were carried out in water and in a solution of K2HPO4 (1.5 mM) in mili-Q water at 298.15 ± 0.1 K. Anion binding to BU was investigated via a classical isothermal titration experiment (10 µL additions) and a single injection method (SIM). Injection of sodium iodide solution was added automatically to the BU solution present in the calorimeter cell while stirring at 307 rpm. Integrated heat effects were analyzed by non-linear regression using a single-site binding model (Microcal Origin 7). The experimental data fitted to a theorical titration curve, giving the association constant Ka, the enthalpy of binding ΔH° and the entropy ΔS°. The free energy ΔG° was calculated from the equation: ΔG° = ΔH° − TΔS°, where T is the absolute temperature. The first smaller addition (2 µL), which was used to compensate for diffusion of the guest from the injector during equilibration, was discarded prior to data fitting.
Figure S1. Isothermal titration calorimetry of I- binding to (DNJ-C6)12BU[6] 6 in H2O.
Top: Data were obtained from the sequential injections of 10µL of guest solution (0.6 mM NaI) to BU
6 (0.05 mM). Bottom: Plot of the total heat released as a function of the total ligand concentration
for the titration shown upper.
(1 picture or pasted object on this page, not shown here)

Jack Bean α-mannosidase [3] = target: T1, Jack Bean α-mannosidase; details: cited from earlier work

| Inhibition Mode (Jack Bean α-mannosidase [1]) | Ki (Jack Bean α-mannosidase [1]; 0.2 M acetate buffer pH 5, 25-27 °C, for mixed inhibitors the first value of the cell (Ki)) | Ki' (Jack Bean α-mannosidase [1]; mixed inhibition, second value of the cell (Ki' in supplement)) | Rp (relative potency) (Jack Bean α-mannosidase [1]; rp = Ki (monovalent reference)/Ki (neoglycocluster)) | Ka (iodide) [2] | SMILES | Ki (Jack Bean α-mannosidase [3]; monovalent C6 reference) | Inhibition Mode (Jack Bean α-mannosidase [3]; monovalent references) |
| --- | --- | --- | --- | --- | --- | --- | --- |
| mixed | 68.2 µM | 147 ± 21 µM | 4.7 | 480000 M⁻¹ | O=C1N(Cc2cn(CCCCCCN3C[C@H](O)[C@@H](O)[C@H](O)[C@H]3CO)nn2)C2C(N1Cc1cn(CCCCCCN3C[C@H](O)[C@@H](O)[C@H](O)[C@H]3CO)nn1)N1CN3C(=O)N(CN4C(=O)N(CN5C(=O)N(CN6C(=O)N(CN7C(=O)N(CN2C1=O)C1C7N(Cc2cn(CCCCCCN7C[C@H](O)[C@@H](O)[C@H](O)[C@H]7CO)nn2)C(=O)N1Cc1cn(CCCCCCN2C[C@H](O)[C@@H](O)[C@H](O)[C@H]2CO)nn1)C1C6N(Cc2cn(CCCCCCN6C[C@H](O)[C@@H](O)[C@H](O)[C@H]6CO)nn2)C(=O)N1Cc1cn(CCCCCCN2C[C@H](O)[C@@H](O)[C@H](O)[C@H]2CO)nn1)C1C5N(Cc2cn(CCCCCCN5C[C@H](O)[C@@H](O)[C@H](O)[C@H]5CO)nn2)C(=O)N1Cc1cn(CCCCCCN2C[C@H](O)[C@@H](O)[C@H](O)[C@H]2CO)nn1)C1C4N(Cc2cn(CCCCCCN4C[C@H](O)[C@@H](O)[C@H](O)[C@H]4CO)nn2)C(=O)N1Cc1cn(CCCCCCN2C[C@H](O)[C@@H](O)[C@H](O)[C@H]2CO)nn1)C1C3N(Cc2cn(CCCCCCN3C[C@H](O)[C@@H](O)[C@H](O)[C@H]3CO)nn2)C(=O)N1Cc1cn(CCCCCCN2C[C@H](O)[C@@H](O)[C@H](O)[C@H]2CO)nn1 (stereo partly shown) [Compound 6, (DNJ-C6)12BU[6]] | – | – |
| – | – | – | – | – | CCCn1cc(CCCCCCN2C[C@H](O)[C@@H](O)[C@H](O)[C@H]2CO)nn1 [Compound 21] | 322 µM | competitive |
